Laboratory results: ChEMBL document CHEMBL1133093, “The PPARs: from orphan receptors to drug discovery” (J Med Chem, 2000)

What was measured:
[1] = biological target: T1, Peroxisome proliferator-activated receptor delta (Mus musculus, UniProt P35396)
T1 sequence (P35396 whole entry): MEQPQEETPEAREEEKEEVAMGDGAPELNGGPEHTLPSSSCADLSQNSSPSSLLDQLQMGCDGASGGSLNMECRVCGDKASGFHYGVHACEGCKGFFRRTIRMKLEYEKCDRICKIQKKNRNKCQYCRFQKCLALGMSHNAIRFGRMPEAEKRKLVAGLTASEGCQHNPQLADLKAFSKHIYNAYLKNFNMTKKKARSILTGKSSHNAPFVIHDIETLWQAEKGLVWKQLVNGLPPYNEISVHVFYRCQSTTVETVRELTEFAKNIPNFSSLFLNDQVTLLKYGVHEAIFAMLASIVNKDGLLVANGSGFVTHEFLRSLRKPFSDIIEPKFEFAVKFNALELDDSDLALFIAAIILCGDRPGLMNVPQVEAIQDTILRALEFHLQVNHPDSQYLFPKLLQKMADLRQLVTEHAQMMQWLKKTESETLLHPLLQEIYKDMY
Description: Agonist activity for murine PPAR delta receptor in transcriptional activation assay;IA means inactive at 10 uM

[2] = biological target: T2, Peroxisome proliferator-activated receptor alpha (Homo sapiens, UniProt Q07869)
T2 sequence (Q07869 whole entry): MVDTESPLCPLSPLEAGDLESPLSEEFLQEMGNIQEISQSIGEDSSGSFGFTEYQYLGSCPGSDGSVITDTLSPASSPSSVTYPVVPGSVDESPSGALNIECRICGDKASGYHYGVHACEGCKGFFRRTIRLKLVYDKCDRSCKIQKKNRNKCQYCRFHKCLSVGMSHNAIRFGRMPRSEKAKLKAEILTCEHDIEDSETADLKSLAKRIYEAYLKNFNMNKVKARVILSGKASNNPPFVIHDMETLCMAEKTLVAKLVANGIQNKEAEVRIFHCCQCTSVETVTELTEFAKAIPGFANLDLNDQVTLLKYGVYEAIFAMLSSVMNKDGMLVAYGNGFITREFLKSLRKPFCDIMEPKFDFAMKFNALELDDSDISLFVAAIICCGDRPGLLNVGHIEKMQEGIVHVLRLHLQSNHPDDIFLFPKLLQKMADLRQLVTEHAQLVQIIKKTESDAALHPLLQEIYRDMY

[3] = biological target: T3, Peroxisome proliferator-activated receptor delta (Homo sapiens, UniProt Q03181)
T3 sequence (Q03181 whole entry): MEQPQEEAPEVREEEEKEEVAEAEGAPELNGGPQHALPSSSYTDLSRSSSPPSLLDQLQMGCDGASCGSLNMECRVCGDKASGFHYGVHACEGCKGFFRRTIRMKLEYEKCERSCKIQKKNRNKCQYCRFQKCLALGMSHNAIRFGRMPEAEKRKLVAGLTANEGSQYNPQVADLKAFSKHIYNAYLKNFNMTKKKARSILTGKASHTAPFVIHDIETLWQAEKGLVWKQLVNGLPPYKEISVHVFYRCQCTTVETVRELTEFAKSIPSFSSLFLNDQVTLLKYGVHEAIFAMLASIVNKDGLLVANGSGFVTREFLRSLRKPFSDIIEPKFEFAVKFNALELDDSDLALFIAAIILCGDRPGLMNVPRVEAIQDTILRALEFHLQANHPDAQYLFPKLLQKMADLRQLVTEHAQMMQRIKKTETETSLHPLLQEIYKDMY
Description: Agonist activity for Human PPAR delta receptor in transcriptional activation assay;IA means inactive at 10 uM

[4] = biological target: T4, Peroxisome proliferator-activated receptor alpha (Mus musculus, UniProt P23204); assay type: functional
T4 sequence (P23204 whole entry): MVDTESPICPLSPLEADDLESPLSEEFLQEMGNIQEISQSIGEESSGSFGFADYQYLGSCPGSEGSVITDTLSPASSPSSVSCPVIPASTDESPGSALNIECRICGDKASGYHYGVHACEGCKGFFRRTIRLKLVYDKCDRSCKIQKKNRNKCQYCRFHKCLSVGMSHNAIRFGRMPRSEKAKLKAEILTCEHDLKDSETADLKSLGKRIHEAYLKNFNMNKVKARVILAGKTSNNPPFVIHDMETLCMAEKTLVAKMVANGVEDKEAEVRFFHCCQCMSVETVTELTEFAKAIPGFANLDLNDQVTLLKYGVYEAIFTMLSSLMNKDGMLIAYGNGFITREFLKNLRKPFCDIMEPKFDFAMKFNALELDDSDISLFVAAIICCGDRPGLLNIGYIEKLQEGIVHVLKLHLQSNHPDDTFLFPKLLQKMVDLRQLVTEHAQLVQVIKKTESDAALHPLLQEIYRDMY

[5] = biological target: T5, Peroxisome proliferator-activated receptor gamma (Mus musculus, UniProt P37238)
T5 sequence (P37238 whole entry): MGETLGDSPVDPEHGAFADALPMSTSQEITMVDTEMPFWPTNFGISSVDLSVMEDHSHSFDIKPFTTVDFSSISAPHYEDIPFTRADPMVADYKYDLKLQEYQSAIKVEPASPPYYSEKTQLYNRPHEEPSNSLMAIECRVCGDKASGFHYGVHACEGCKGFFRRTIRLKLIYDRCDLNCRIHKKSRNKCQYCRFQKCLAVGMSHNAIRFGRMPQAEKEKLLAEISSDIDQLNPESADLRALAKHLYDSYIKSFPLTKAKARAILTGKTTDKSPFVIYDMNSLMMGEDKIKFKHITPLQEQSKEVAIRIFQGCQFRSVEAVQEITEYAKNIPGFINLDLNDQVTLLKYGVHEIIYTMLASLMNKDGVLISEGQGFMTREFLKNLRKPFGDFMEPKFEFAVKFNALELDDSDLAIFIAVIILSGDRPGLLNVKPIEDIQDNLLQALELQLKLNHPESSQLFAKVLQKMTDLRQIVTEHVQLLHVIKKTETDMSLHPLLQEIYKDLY
Description: Agonist activity for murine PPAR gamma receptor in transcriptional activation assay

[6] = biological target: T1, Peroxisome proliferator-activated receptor delta; remark: listed apart in the source
Description: Agonist activity for murine PPAR delta receptor in transcriptional activation assay at 100 uM; IA means inactive

[7] = biological target: T3, Peroxisome proliferator-activated receptor delta; test: Agonist activity for Human PPAR delta receptor in transcriptional activation assay at 100 uM; IA means inactive; assay type: functional
[8] = biological target: T6, Peroxisome proliferator-activated receptor gamma (Homo sapiens, UniProt P37231); test: Agonist activity for Human PPAR gamma receptor in transcriptional activation assay; assay type: functional
T6 sequence (P37231 whole entry): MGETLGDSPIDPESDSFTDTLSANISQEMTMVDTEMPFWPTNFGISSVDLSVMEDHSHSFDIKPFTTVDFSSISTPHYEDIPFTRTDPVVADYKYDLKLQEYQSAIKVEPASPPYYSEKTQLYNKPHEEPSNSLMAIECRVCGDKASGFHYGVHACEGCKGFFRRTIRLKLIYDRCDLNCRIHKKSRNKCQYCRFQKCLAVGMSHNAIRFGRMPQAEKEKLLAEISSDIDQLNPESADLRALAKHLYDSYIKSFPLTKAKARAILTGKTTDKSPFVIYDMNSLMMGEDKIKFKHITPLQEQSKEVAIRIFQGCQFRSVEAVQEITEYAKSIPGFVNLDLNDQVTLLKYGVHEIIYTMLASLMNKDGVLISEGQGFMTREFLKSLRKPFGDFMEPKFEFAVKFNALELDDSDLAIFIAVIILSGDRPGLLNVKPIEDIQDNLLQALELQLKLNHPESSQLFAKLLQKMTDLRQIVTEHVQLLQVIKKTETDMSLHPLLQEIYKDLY

[9] = biological target: T1, Peroxisome proliferator-activated receptor delta; test: Agonist activity for murine PPAR delta receptor in transcriptional activation assay; assay type: functional
[10] = biological target: T3, Peroxisome proliferator-activated receptor delta; remark: listed apart in the source
[11] = biological target: T4, Peroxisome proliferator-activated receptor alpha; test: Agonist activity for murine PPAR alpha receptor in transcriptional activation assay;IA means inactive at 10 uM; assay type: functional
[12] = biological target: T6, Peroxisome proliferator-activated receptor gamma
[13] = biological target: T2, Peroxisome proliferator-activated receptor alpha; test: Agonist activity for Human PPAR alpha receptor in transcriptional activation assay;IA means inactive at 10 uM; assay type: functional
[14] = biological target: T1, Peroxisome proliferator-activated receptor delta; test: Agonist activity for murine PPAR delta receptor in transcriptional activation assay; IA means inactive at 10 uM; assay type: functional
[15] = biological target: T4, Peroxisome proliferator-activated receptor alpha; test: Agonist activity for murine PPAR alpha receptor in transcriptional activation assay; IA means inactive at 10 uM; assay type: functional
[16] = biological target: T3, Peroxisome proliferator-activated receptor delta; test: Agonist activity for Human PPAR delta receptor in transcriptional activation assay; IA means inactive at 10 uM; assay type: functional
[17] = biological target: T2, Peroxisome proliferator-activated receptor alpha; test: Agonist activity for Human PPAR alpha receptor in transcriptional activation assay; IA means inactive at 10 uM; assay type: functional
[18] = biological target: T2, Peroxisome proliferator-activated receptor alpha; remark: listed apart in the source
[19] = biological target: T1, Peroxisome proliferator-activated receptor delta; remark: listed apart in the source
[20] = biological target: T3, Peroxisome proliferator-activated receptor delta; remark: listed apart in the source

Cc1oc(-c2ccccc2)nc1CCOc1ccc(CC2C(=O)NOC2=O)cc1 (centres undefined) [REGLITAZAR]
EC50 [1]: Not Active | EC50 [2]: 1900 nM | EC50 [3]: Not Active | EC50 [4]: 4300 nM | EC50 [5]: 89 nM

Cc1cccc(Nc2cc(Cl)nc(SCC(=O)O)n2)c1C [PIRINIXIC ACID]
EC50 [5]: 32000 nM

CCOC(=O)C(C)(C)Oc1ccc(Cl)cc1 [CLOFIBRATE]
EC50 [2]: 55000 nM | EC50 [6]: Not Active | EC50 [4]: 50000 nM | EC50 [7]: Not Active | EC50 [8]: 500000 nM

COc1ccc(CC2SC(=O)NC2=O)cc1C(=O)NCc1ccc(C(F)(F)F)cc1 (centres undefined)
EC50 [9]: 7200 nM | EC50 [10]: 9100 nM | EC50 [4]: 10000 nM

CCCc1c(OCCCOc2ccc(OCC(=O)O)cc2)ccc(C(C)=O)c1O
EC50 [9]: 3800 nM | EC50 [2]: 10000 nM | EC50 [10]: 530 nM | EC50 [5]: 10000 nM | EC50 [11]: Not Active | EC50 [12]: 5500 nM

CN(CCOc1ccc(C[C@H](Nc2ccccc2C(=O)c2ccccc2)C(=O)O)cc1)c1ccccn1
EC50 [1]: Not Active | EC50 [3]: Not Active | EC50 [13]: Not Active | EC50 [5]: 13 nM | EC50 [11]: Not Active

COc1ccc(CCc2c(-c3ccccc3)[nH]c3ccc(CC(=O)O)cc23)cc1
EC50 [14]: Not Active | EC50 [15]: Not Active | EC50 [5]: 140 nM | EC50 [16]: Not Active | EC50 [17]: Not Active

CN(CCOc1ccc(CC2SC(=O)NC2=O)cc1)c1ccccn1 (centres undefined) [ROSIGLITAZONE]
EC50 [18]: Not Active | EC50 [15]: Not Active

CCc1ccc(CCOc2ccc(CC3SC(=O)NC3=O)cc2)nc1 (centres undefined) [PIOGLITAZONE]
EC50 [18]: Not Active | EC50 [15]: Not Active | EC50 [19]: Not Active | EC50 [20]: Not Active

COC(=O)c1ccccc1N[C@@H](Cc1ccc(OCCc2nc(-c3ccccc3)oc2C)cc1)C(=O)O [GW7845]
EC50 [1]: Not Active | EC50 [3]: Not Active | EC50 [11]: Not Active

CCCc1c(OCCCSc2ccc(CC(=O)O)cc2Cl)ccc2c(-c3ccccc3)coc12 [L-796449]
EC50 [9]: 23 nM | EC50 [2]: 4.1 nM | EC50 [4]: 7600 nM | EC50 [5]: 10 nM

Cc1oc(-c2ccccc2)nc1CCOc1ccc(C[C@H](Nc2ccccc2C(=O)c2ccccc2)C(=O)O)cc1 [FARGLITAZAR]
EC50 [1]: Not Active | EC50 [3]: Not Active | EC50 [11]: Not Active

CC(C)OC(=O)C(C)(C)Oc1ccc(C(=O)c2ccc(Cl)cc2)cc1 [FENOFIBRATE]
EC50 [6]: Not Active | EC50 [7]: Not Active

CC(C)(Oc1ccc(CCCN(CCc2c(F)cccc2Cl)C(=O)Nc2cccc(Cl)c2Cl)cc1)C(=O)O
EC50 [9]: 410 nM | EC50 [2]: 170 nM | EC50 [4]: 270 nM | EC50 [5]: 1500 nM | EC50 [12]: 2500 nM

CCOC(Cc1ccc(OCCN(C)c2nc3ccccc3o2)cc1)C(=O)O (centres undefined)
EC50 [2]: 740 nM | EC50 [4]: 930 nM

Cc1c(C)c2c(c(C)c1O)CCC(C)(COc1ccc(CC3SC(=O)NC3=O)cc1)O2 (centres undefined) [TROGLITAZONE]
EC50 [18]: Not Active | EC50 [15]: Not Active | EC50 [19]: Not Active | EC50 [20]: Not Active
